Data on 15 compounds can be found in ChEMBL document CHEMBL4007503, “Easy and rapid preparation of benzoylhydrazides and their diazene derivatives as inhibitors of 15-lipoxygenase” (Bioorg Med Chem Lett, 2017).

In assay [1] the test system is Glycine max. In words: Inhibition of soybean 15-LOX at 10 uM using linoleic acid as substrate relative to control.
The target of assay [2] is T1, Polyunsaturated fatty acid lipoxygenase ALOX15 (Homo sapiens, UniProt P16050).
T1 sequence (P16050 whole entry): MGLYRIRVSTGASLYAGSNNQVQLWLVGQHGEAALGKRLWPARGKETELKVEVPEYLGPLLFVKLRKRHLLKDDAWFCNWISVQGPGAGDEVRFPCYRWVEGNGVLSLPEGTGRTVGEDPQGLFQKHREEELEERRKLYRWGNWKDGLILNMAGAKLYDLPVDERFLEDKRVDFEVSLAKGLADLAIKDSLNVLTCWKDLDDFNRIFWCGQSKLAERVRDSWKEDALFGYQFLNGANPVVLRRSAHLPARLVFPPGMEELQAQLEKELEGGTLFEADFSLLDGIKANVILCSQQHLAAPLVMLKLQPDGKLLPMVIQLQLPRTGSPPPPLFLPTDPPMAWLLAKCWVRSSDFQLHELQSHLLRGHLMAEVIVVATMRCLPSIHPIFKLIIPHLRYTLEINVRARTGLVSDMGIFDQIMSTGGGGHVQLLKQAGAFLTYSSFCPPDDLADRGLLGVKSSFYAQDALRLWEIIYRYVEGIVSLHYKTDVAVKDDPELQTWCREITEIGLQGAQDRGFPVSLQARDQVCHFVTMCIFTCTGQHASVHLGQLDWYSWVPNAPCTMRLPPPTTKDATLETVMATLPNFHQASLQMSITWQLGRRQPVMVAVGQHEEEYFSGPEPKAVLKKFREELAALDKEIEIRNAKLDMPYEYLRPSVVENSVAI
In words: Inhibition of 15-LOX in human primary polymorphonuclear leukocytes.

The subject of assay [3] is Glycine max. The assay is described as follows: Inhibition of soybean 15-LOX assessed as Km for substrate using linoleic acid as substrate by Lineweaver-Burk plot analysis.
Assay [4] has as its system Glycine max. The assay is described as follows: Potency index, ratio of 4-methyl-2-(4-methylpiperazinyl)-pyrimido[4,5b]benzothiazine IC50 to compound IC50 for soybean 15-LOX.
Assay [5] can be described thus: Antioxidant activity assessed as ferric ion reducing activity by measuring Fe2+ levels using Fe3+-TPTZ after 40 mins by FRAP assay. The format is functional.
Assay [6] can be described thus: Inhibition of soybean 15-LOX using linoleic acid as substrate. Set-up: species or system Glycine max.
Assay [7] relates to Glycine max. The assay is described as follows: Inhibition of soybean 15-LOX assessed as Vmax for substrate using linoleic acid as substrate by Lineweaver-Burk plot analysis.
The nature of assay [8]: Competitive inhibition of soybean 15-LOX using linoleic acid as substrate by Lineweaver-Burk plot analysis. Set-up: species or system Glycine max.
Assay [9] deals with T1, Polyunsaturated fatty acid lipoxygenase ALOX15. In words: Inhibition of thapsigargin-stimulated 15-LOX in human primary polymorphonuclear leukocytes using arachidonic acid as substrate preincubated for 5 mins followed by thapsigargin stimulation for 5 mins by RP-HPLC method.
Assay [10] can be described thus: Antioxidant activity assessed as cupric ion reducing activity after 30 mins by CUPRAC assay. It is filed as functional.

Broadly, the inhibition is the drop in the measured response relative to a control, in per cent. Usually IC50 stands for the concentration needed to halve the response being measured. Read a high IC50 as a need for much substance. Usually Km stands for the substrate concentration at which the rate is half of its maximum. Broadly, the Vmax is the top rate of the reaction or transport when substrate is in excess. By Ki is commonly meant a dissociation constant, usually derived from enzyme kinetics or from competition with a known ligand. Low values mean higher affinity, high ones lower affinity.

Calls of active or inactive are those of the source. No cut-off for these calls is given here.

In the assay on Glycine max [1], `O=C(/N=N/c1ccc(Br)cc1)c1ccccc1` registered an inhibition of 44%.

Turning to `CC(c1cc2ccccc2s1)N(O)C(N)=O` (stereo not given) [ZILEUTON], the IC50 in assay [2] is 0.4 µM.

As to `Cc1ccc(NNC(=O)c2ccccc2)cc1`, in the assay on Glycine max [3], the Km was determined as 89.6 µM. In the assay with Glycine max [1], this compound returned an inhibition of 93%. Also, the Ratio IC50 in the assay with Glycine max [4] was 3.4. In addition, the result in assay [5] was Active. Besides, half-maximal inhibition in assay [6] (IC50) required 5.35 µM. In the assay on Glycine max [7], the maximum rate (Vmax) was determined as 0.46 µM/s. Besides, the Ki in assay [8] is 0.81 µM.

In turn, `O=C(/N=N/c1ccc([N+](=O)[O-])cc1)c1ccccc1` displayed an inhibition in the assay with Glycine max [1] of 34%.

The compound `O=C(NNc1ccc([N+](=O)[O-])cc1)c1ccccc1` registered an inhibition in the assay with Glycine max [1] of 17%.

With `Cc1ccc(/N=N/C(=O)c2ccccc2)cc1`, the inhibition with Glycine max [1] is 44%.

Regarding `N#Cc1ccc(/N=N/C(=O)c2ccccc2)cc1`, in the assay on Glycine max [3], the Km stood at 140 µM. The inhibition with Glycine max [1] was 80%. In assay [6], this compound came in with an IC50 of 9.78 µM. Also, the maximum rate (Vmax) with Glycine max [7] is 0.57 µM/s. The compound further displayed a Ki in assay [8] of 3.89 µM.

Compound `COc1ccc(/N=N/C(=O)c2ccccc2)cc1` gave an inhibition in the assay on Glycine max [1] of 19%.

`COc1ccc(NNC(=O)c2ccccc2)cc1` gave an inhibition in the assay with Glycine max [1] of 73%. Also, the outcome in assay [5] was Active.

The compound `NS(=O)(=O)c1ccc(NNC(=O)c2ccccc2)cc1` came in with an inhibition in the assay on Glycine max [1] of 10%.

In assay [9], `O=C(/C=C/c1ccc(O)c(O)c1)OCCc1ccccc1` [CAFFEIC ACID PHENETHYL ESTER] showed an IC50 of 0.13 µM.

Take `N#Cc1ccc(NNC(=O)c2ccccc2)cc1`: in the assay with Glycine max [1], the inhibition is 9%.

On to `O=C(NNc1ccccc1)c1ccccc1`, for which the result in assay [10] and in assay [5] was Active. In the assay with Glycine max [1], this compound gave an inhibition of 33%.

On to `O=C(NNc1ccc(Br)cc1)c1ccccc1`, for which the inhibition in the assay on Glycine max [1] was found to be 28%. Moreover, the outcome in assay [5] was Active.

The compound `O=C(/N=N/c1ccccc1)c1ccccc1` came in with an inhibition in the assay on Glycine max [1] of 87%. Moreover, in [6], inhibition was half-maximal at 6.97 µM (IC50).
